Assay results published in patent US20160303127A1, “COMBINATION THERAPY WITH C-MET AND EGFR ANTAGONISTS” (Genentech, Inc., priority 2008, published 2016).
“And” between values parts separate entries of the source, which are not always exact repeats. Equal entries are not always repeated.

B1: MetMAb: Anti-c-met monovalent monoclonal antibody MetMAb (rhuOA5D5v2) (WO2007/063816) (antibody, chains of the INN, looked up, V domains shown)
VH: EVQLVESGGGLVQPGGSLRLSCAASGYTFTSYWLHWVRQAPGKGLEWVGMIDPSNSDTRFNPNFKDRFTISADTSKNTAYLQMNSLRAEDTAVYYCATYRSYVTPLDYWGQGTLVTVSS
VL: DIQMTQSPSSLSASVGDRVTITCKSSQSLLYTSSQKNYLAWYQQKPGKAPKLLIYWASTRESGVPSRFSGSGSGTDFTLTISSLQPEDFATYYCQQYYAYPWTFGQGTKVEIK
modifications: one-armed

Tests used:
Conditions in all cases: MetMAb 30 mg/kg 24 h, erlotinib 150 mg/kg 6 h prior to harvest, average of 5 animals
c-met = biological target: T1, c-met (Homo sapiens, UniProt P08581, DEL964-1010); test: c-met phosphorylation in NCI-H596 hu-HGF-Tg-SCID xenograft tumors (IP/immunoblot); type: in vivo, mouse xenograft
T1 construct: endogenous in cells; host or cells: NCI-H596 (human NSCLC) cells grown as xenograft tumours in hu-HGF-Tg-SCID mice; tumour lysate, IP and immunoblot
Experimental: (§1) Tumors were allowed to grow to 200-300 mm^3 prior to treatment. Dosing was performed as described in Table 8. Briefly, MetMAb (30 mg/kg) or MetMAb buffer was dosed at time zero hours (0 hr) and methylcellulose tween vehicle (MCT) or erlotinib (150 mg/kg) was dosed at time 18 hours (18 hr). Mice were euthanized and tumors and plasma collected at time 24 hours (24 hr). Tumors were snap frozen in liquid nitrogen and then kept at −70° C. until they were processed for immunoprecipitation and immunoblotting.
Immunoprecipitations and Immunoblotting: To process tumors for protein analysis, tumors were first homogenized using a glass dounce with lysis buffer (Cell Signaling Technology, Inc., Danvers, Mass.), supplemented with 1 mM PMSF, additional protease inhibitor cocktail, and phosphatase inhibitor cocktail I and II (Sigma, Inc., St. Louis, Mo.). Lysates were incubated on ice for one hour and then centrifuged at 14,000×g for five minutes and supernatants collected. Protein concentrations were determined using the BCA™ Protein Assay Kit (Pierce, Inc., Rockford, Ill.) and samples were immunoblotted. […] For direct Western blots, 50 μg of tumor lysate was loaded per lane. Samples were then analyzed by SDS-PAGE and immunoblotting. […] Goat-anti-mouse-IRdye800 (Rockland Immunochemicals, Inc., Gilbertsville, Pa.) and goat-anti-rabbit-AlexaFluor680 (Molecular Probes, Inc., Eugene, Oreg.) were used as secondary antibodies. Immunoblots were imaged and phospho-protein levels were quantified and normalized to total protein levels (e.g. pEGFR over total EGFR) using an Odyssey imager (LI-COR Biosciences, Lincoln, Nebr.).
Twenty hu-HGF-Tg-SCID mice were inoculated with NCI-H596 cells and tumors established, as previously described. Once tumors reached sizes between 200-300 mm^3, mice were evenly grouped into four groups based upon tumor volume and dosing was begun (Table 8). MetMAb was dosed 24 hours prior to tumor harvest whereas erlotinib was dosed 6 hours prior to harvest. Dosing times were selected based on the relative half-life of each therapeutic agent. […]

ERK-1/2 = test: phospho-ERK-1/2 in NCI-H596 hu-HGF-Tg-SCID xenograft tumors (immunoblot); type: in vivo, human
Experimental: as §1
(§2) Immunoprecipitations and Immunoblotting: To process tumors for protein analysis, tumors were first homogenized using a glass dounce with lysis buffer (Cell Signaling Technology, Inc., Danvers, Mass.), supplemented with 1 mM PMSF, additional protease inhibitor cocktail, and phosphatase inhibitor cocktail I and II (Sigma, Inc., St. Louis, Mo.). Lysates were incubated on ice for one hour and then centrifuged at 14,000×g for five minutes and supernatants collected. Protein concentrations were determined using the BCA™ Protein Assay Kit (Pierce, Inc., Rockford, Ill.) and samples were immunoblotted. […] Samples were then analyzed by SDS-PAGE and immunoblotting. […] Immunoblots were imaged and phospho-protein levels were quantified and normalized to total protein levels (e.g. pEGFR over total EGFR) using an Odyssey imager (LI-COR Biosciences, Lincoln, Nebr.). […]

Akt = test: phospho-Akt in NCI-H596 hu-HGF-Tg-SCID xenograft tumors (immunoblot); type: in vivo, human
Experimental: NCI-H596 hu-HGF-Tg-SCID xenograft tumors: NCI-H596 xenografts were established in hu-HGF-Tg-SCID mice as described in Example 4. Tumors were allowed to grow to 200-300 mm^3 prior to treatment. Dosing was performed as described in Table 8. Briefly, MetMAb (30 mg/kg) or MetMAb buffer was dosed at time zero hours (0 hr) and methylcellulose tween vehicle (MCT) or erlotinib (150 mg/kg) was dosed at time 18 hours (18 hr). Mice were euthanized and tumors and plasma collected at time 24 hours (24 hr). Tumors were snap frozen in liquid nitrogen and then kept at −70° C. until they were processed for immunoprecipitation and immunoblotting.
as §2, with “Lysates were incubated on ice for one hour and then centrifuged at 14,000×g for five minutes and supernatants collected.” left out

Molecule | pMet/total Met (c-met phosphorylation) (c-met) | pMet/total Met (c-met phosphorylation) (c-met; listed as Erlotinib) | pERK1/2/total ERK1/2 (ERK-1/2; listed as Erlotinib) | pAkt/total Akt (Akt; listed as Erlotinib) | pERK1/2/total ERK1/2 (ERK-1/2) | pAkt/total Akt (Akt)
C#Cc1cccc(Nc2ncnc3cc(OCCOC)c(OCCOC)cc23)c1 [erlotinib, N-(3-ethynylphenyl)-6,7-bis(2-methoxyethoxy)-4-quinazolinamine] | did not reduce c-met phosphorylation | 157 (±103.4) % of vehicle control | 39% (+/−8.9%) % of vehicle control and 39 (±8.9) % of vehicle control | 45% (+/−25.7%) % of vehicle control and 45 (±25.7) % of vehicle control | – | –
B1 | 12% (+/−3.6%) % of vehicle control and 12 (±3.5) % of vehicle control | – | – | – | 72% (+/−40.3%) % of vehicle control and 72 (±40.3) % of vehicle control | 72% (+/−27.9%) % of vehicle control and 72 (±27.9) % of vehicle control
